Values joined by “and” are separate entries in the source; they are usually repeats but may differ in a detail not shown here. Equal entries are not always repeated.

Experiment [1] is filed under the species Rattus norvegicus. In words: Effective dose determined by suppression of high base-line self-stimulation in adult male hooded rats. Format: functional.
The species entered for experiment [2] is Rattus norvegicus. In words: Effective dose against [3H]haloperidol binding in rat striatal membranes. Format: functional. The note with it: Striatum, Membrane.
A further experiment deals with Mus musculus. In words: Lowest active dose for the inhibition of locomotor screen falloff test, ip. Format: functional.
Experiment [3] is filed under the species Rattus norvegicus. In words: Effective dose determined by catalepsy test in rat. Format: functional.
A further experiment deals with Dopamine receptor. In words: Inhibition of [3H]haloperidol binding to dopamine receptors in rat striatal membranes.
The target in experiment [4] is Dopamine receptor (Rattus norvegicus) (UniProt P25115+P19020+P30729+P18901+P61169). In words: Inhibition of [3H]haloperidol binding to dopamine receptors in rat striatal membranes at 10e-8 M. The class given is cell membranes. The note with it: Membrane.

Consider `Oc1nc2ccccc2n1C1=CCN(CCCN(c2ccc(F)cc2)c2ccc(F)cc2)CC1`, for which the ED50 in the experiment filed under Rattus norvegicus [1] came to 5.55 mg/kg; in the experiment listed under Rattus norvegicus [2], 320 pM; in the experiment filed under Rattus norvegicus [3], 105 mg/kg. For the same compound, the LAD in the experiment with Mus musculus was determined as 30 mg/kg.

With `O=C1NCN(c2ccccc2)C12CCN(CCCN(c1ccccc1)c1ccc(F)cc1)CC2`, the ED50 in the experiment listed under Rattus norvegicus [1] was determined as 11.7 mg/kg; in the experiment listed under Rattus norvegicus [3] it was 156 mg/kg. Also, the LAD in the experiment with Mus musculus is 30 mg/kg.

Turning to `O=C1NCN(c2ccccc2)C12CCN(CCCC(c1ccc(F)cc1)c1ccc(F)cc1)CC2`, the values for the ED50 in the experiment filed under Rattus norvegicus [1] and in the experiment filed under Rattus norvegicus [3] were 1.28 mg/kg and 10.8 mg/kg, respectively. The LAD in the experiment with Mus musculus is less than 10 mg/kg.

For `CN1CCN(C2=Nc3cc(Cl)ccc3Nc3ccccc32)CC1` [CLOZAPINE], the ED50 in the experiment filed under Rattus norvegicus [1] came out at 14.3 mg/kg; in the experiment listed under Rattus norvegicus [3] it was 133 mg/kg. The compound also came in with an LAD in the experiment with Mus musculus of 10 mg/kg.

In the experiment with Mus musculus, `Fc1ccc(N(CCCN2CCC(n3c(S)nc4ccccc43)CC2)c2ccc(F)cc2)cc1` gave an LAD greater than 100 mg/kg.

Broadly, the IC50 is the concentration that inhibits the measured activity by half. Low readings indicate greater potency in that assay, high ones weaker potency in that assay. As to `O=C1NCN(c2ccccc2)C12CCN(CCCN(c1ccc(F)cc1)c1ccc(F)cc1)CC2`, the ED50 turned out to be 1.65 mg/kg in the experiment listed under Rattus norvegicus [1] and 81.2 mg/kg in the experiment filed under Rattus norvegicus [3]. For the same compound, at Dopamine receptor, the IC50 was 610 pM. In addition, the LAD in the experiment with Mus musculus came to 5 mg/kg.

On to `Oc1nc2ccccc2n1C1CCN(CCCN(c2ccccc2)c2ccccc2)CC1`, for which the ED50 in the experiment listed under Rattus norvegicus [1] is 13.2 mg/kg. In the experiment on Mus musculus, the LAD amounted to 30 mg/kg.

As usually defined, the inhibition is the share of the control response that was lost under treatment. Turning to `Oc1nc2ccccc2n1C1CCN(CCCN(c2ccccc2)c2ccc(F)cc2)CC1`, the ED50 in the experiment filed under Rattus norvegicus [1] is 8.37 mg/kg; in the experiment filed under Rattus norvegicus [3], 76 mg/kg. Besides, the inhibition in experiment [4] came out at 84%. For the same compound, the LAD with Mus musculus worked out at 30 mg/kg.

With `Oc1nc2cc(Cl)ccc2n1C1CCN(CCCN(c2ccc(F)cc2)c2ccc(F)cc2)CC1`, the LAD in the experiment on Mus musculus was greater than 100 mg/kg.

`COc1ccccc1N1CCN(CCCN(c2ccc(F)cc2)c2ccc(F)cc2)CC1`: the ED50 in the experiment filed under Rattus norvegicus [1] was determined as 5.5 mg/kg; in the experiment filed under Rattus norvegicus [3] it was 160 mg/kg. The half-inhibitory concentration (IC50) on Dopamine receptor worked out at 13000 pM. Also, in the experiment with Mus musculus, the LAD turned out to be 30 mg/kg.

Consider `Oc1nc2cc(Cl)c(Cl)cc2n1C1CCN(CCCN(c2ccc(F)cc2)c2ccc(F)cc2)CC1`, for which the LAD with Mus musculus is greater than 100 mg/kg.

`Cc1cc2nc(O)n(C3CCN(CCCN(c4ccc(F)cc4)c4ccc(F)cc4)CC3)c2cc1C` came in with an ED50 in the experiment filed under Rattus norvegicus [1] greater than 16 mg/kg. In the experiment with Mus musculus, this compound returned an LAD of 30 mg/kg.

With `O=c1[nH]c2ccccc2n1C1CCN(CCCC(c2ccc(F)cc2)c2ccc(F)cc2)CC1` [PIMOZIDE], in the experiment on Mus musculus, the LAD was <10 mg/kg and 30 mg/kg.

`Fc1ccc(N(CCCN2CCN(c3ccccc3)CC2)c2ccc(F)cc2)cc1`: in the experiment with Mus musculus, the LAD is 100 mg/kg.

For the compound `O=C1NCN(c2ccccc2)C12CCN(CCN(c1ccc(F)cc1)c1ccc(F)cc1)CC2`, the LAD with Mus musculus amounted to 100 mg/kg.

In the experiment on Mus musculus, `Oc1nc2ccccc2n1C1CCN(CCCN(c2ccccc2)c2cccc(Cl)c2)CC1` yielded an LAD greater than 100 mg/kg.

Consider `O=[N+]([O-])c1ccc(N(CCCN2CCC(n3c(O)nc4ccccc43)CC2)c2ccccc2)cc1`, for which, in experiment [4], the inhibition is 17%. For the same compound, the LAD with Mus musculus was determined as 100 mg/kg.

Compound `OC1(c2ccc(Cl)cc2)CCN(CCCN(c2ccc(F)cc2)c2ccc(F)cc2)CC1` showed an ED50 in the experiment filed under Rattus norvegicus [1] of 4.42 mg/kg. The compound further had an LAD with Mus musculus of 30 mg/kg.

As to `O=C1NCN(c2ccccc2)C12CCN(CCCCN(c1ccc(F)cc1)c1ccc(F)cc1)CC2`, the LAD in the experiment on Mus musculus was greater than 100 mg/kg.

For `Oc1nc2ccccc2n1C1CCN(CCCN(c2ccc(F)cc2)c2ccccc2F)CC1`, the values for the ED50 in the experiment listed under Rattus norvegicus [1] and in the experiment listed under Rattus norvegicus [3] were 11.3 mg/kg and 156 mg/kg, respectively. The inhibition in experiment [4] was 92%. This compound also displayed an LAD in the experiment with Mus musculus of 30 mg/kg.

On to `OCCN1CCN(CCCN(c2ccc(F)cc2)c2ccc(F)cc2)CC1`, for which the LAD in the experiment with Mus musculus was greater than 100 mg/kg.

With `O=C(c1ccc(Cl)cc1)C1CCN(CCCN(c2ccc(F)cc2)c2ccc(F)cc2)CC1`, in the experiment on Mus musculus, the LAD was greater than 100 mg/kg.

With `O=C1NCN(c2ccccc2)C12CCN(CCCN(c1ccc(F)cc1)c1cccc(Cl)c1)CC2`, the ED50 in the experiment listed under Rattus norvegicus [1] was 12.7 mg/kg; in the experiment listed under Rattus norvegicus [3], 289 mg/kg. In the experiment on Mus musculus, this compound had an LAD of 30 mg/kg.

The record behind these values is ChEMBL document CHEMBL1122995, “1-[3-(Diarylamino)propyl]piperidines and related compounds, potential antipsychotic agents with low cataleptogenic profiles” (J Med Chem, 1985).
